Measurements as given in patent US9556237B2 (priority 2012, dated 2017).

What was measured:
[1] = test system: Vero E6 cells
[2] = test system: RVFV-MP12; format: cell-based, Rift Valley fever virus
[3] = test system: EBOV-eGFP; format: cell-based, Zaire ebolavirus

Compound	inhibition of RVFV-MP12 (plaque reduction), in words [2]	further results
CSCC[C@H](NC(=O)[C@H](CC(C)C)NC(=O)CNC(=O)[C@H](CO)NC(=O)[C@H](Cc1ccccc1)NC(=O)[C@H](Cc1c[nH]c2ccccc12)NC(=O)[C@H](CC(=O)O)NC(=O)[C@H](Cc1ccccc1)NC(=O)[C@H](Cc1ccccc1)NC(=O)[C@H](CC(N)=O)NC(=O)[C@@H](N)Cc1c[nH]c2ccccc12)C(=O)N[C@@H](CO)C(=O)N[C@@H](Cc1c[nH]c2ccccc12)C(=O)N[C@@H](Cc1ccccc1)C(=O)NCC(=O)NCC(=O)N1CCC[C@H]1C(=O)N[C@@H](CC(C)C)C(=O)N[C@@H](CCCCN)C(=O)O [RVFV-6, WNFFDWFSGLMSWFGGPLK]		impact on cell proliferation (MTT assay) [1]: little negative impact on cell proliferation
FVGAAVSCDAAFLNLTGCY [RVFV-4]	Only RVFV-5 demonstrated any inhibition	
LGASSSRFTNWGSVSLSLD [RVFV-3]	Only RVFV-5 demonstrated any inhibition	
SGSWNFFDWFSGLMSWFGGPL [RVFV-10]		inhibition of EBOV (GFP signal) [3]: strongly inhibit
WGCGCFNVNPSCLFVHTYL [RVFV-2]	Only RVFV-5 demonstrated any inhibition	
YWTGSISPKCLSSRRCHLV [RVFV-1]	Only RVFV-5 demonstrated any inhibition	
